Patent publication US20210139484A1, “DIHYDROISOQUINOLINE-2(1H)-CARBOXAMIDE AND RELATED COMPOUNDS AND THEIR USE IN TREATING MEDICAL CONDITIONS” (GOSSAMER BIO SERVICES, INC., priority 2018, published 2021)

Target: T1, human HPK1 protein (Homo sapiens, UniProt Q92918)
T1 construct: recombinant human HPK1 protein (a.a. 1-346) was expressed in Sf9 insect cells; GST (N); purchased Signalchem M23-11G; host or cells: Sf9 insect cells (baculovirus)
T1 sequence (Q92918 1-346): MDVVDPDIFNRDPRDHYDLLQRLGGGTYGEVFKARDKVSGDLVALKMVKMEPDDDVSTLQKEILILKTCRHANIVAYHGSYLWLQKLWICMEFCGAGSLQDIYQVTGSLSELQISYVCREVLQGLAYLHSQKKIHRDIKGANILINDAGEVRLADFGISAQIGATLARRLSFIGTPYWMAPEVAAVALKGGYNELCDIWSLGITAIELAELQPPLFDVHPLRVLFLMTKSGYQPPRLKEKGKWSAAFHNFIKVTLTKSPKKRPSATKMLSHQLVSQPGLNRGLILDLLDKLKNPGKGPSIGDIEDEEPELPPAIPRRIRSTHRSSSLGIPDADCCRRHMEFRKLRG
Test: Human HPK1 protein TR-FRET assay
Type: biochemical
Details: 1 mM ATP, Table 19
Procedure: Exemplary compounds from the above Examples were tested for ability to inhibit HPK1 using a human HPK1 protein TR-FRET Assay. Assay procedures and results are described below.
N-terminal GST-tagged recombinant human HPK1 protein (a.a. 1-346) was expressed in Sf9 insect cells using a baculovirus expression system (Signalchem Catalog #M23-11G). The enzyme was diluted in assay buffer (50 mM Tris pH 7.5, 1 mM MgCl2, 0.01% NP-40 and 2 mM DTT) to obtain a 4× working solution at a concentration of 40 nM HPK1 enzyme.
A 5 μM stock of ULight™ CREBtide peptide RRPSYRK (Perkin Elmer Product No. TRF0107-M) derived from human cAMP Response Element Binding (CREB) Protein was prepared in storage buffer containing 50 mM Tris-HCl (pH 7.4), 0.9% NaCl, 0.1% BSA, and 0.05% sodium azide. The CREBtide substrate was diluted in assay buffer (50 mM Tris pH 7.5, 1 mM MgCl2, 0.01% NP-40, 2 mM DTT) with 2 mM ATP to a final concentration of 200 nM CREBtide peptide to obtain a 2× working solution of substrate. HPK1 enzyme and CREBtide substrate solutions were mixed with compounds diluted in DMSO to obtain a final concentration of enzyme, substrate, and ATP of 10 nM, 100 nM, and 1 mM, respectively, in 1% DMSO. The final assay mixture was incubated at room temperature for 60 minutes.
A solution of Europium-labeled anti-phospho-CREB (Ser133) antibody (Perkin Elmer Product No. TRF0200-M), EDTA and LANCE™ Detection Buffer (Perkin Elmer Product No. CR97-100) were added to each well to obtain a final concentration of 2 nM antibody, 10 mM EDTA and 1× LANCE buffer. The resulting mixture was incubated at room temperature for 60 minutes.
The fluorescence resonance energy transfer (FRET) signal was measured on an Envision plate reader: Excitation filter=340 nm, APC emission=665 nm, Europium emission=615 nm, dichroic mirror=D400/D630, delay time=100 μs, and integration time=200 μs. The half maximal inhibitory concentration (IC50) values for compounds were calculated from the quotient of the fluorescence signal at 665 nm divided by the fluorescence signal at 615 nm. The quotient of the fluorescence signals in the presence of DMSO without compound is set as 100 percent enzymatic activity. A 4-parameter logistic model in PRISM (GraphPad) was used to calculate the IC50 for a given compound.

| IC50 | Compound |
| --- | --- |
| 500 to 5000 nM | CCN1CCN(Cc2ccc(NC(=O)N3CCc4ccc(Oc5cn[nH]c5)cc4C3)cc2C(F)(F)F)CC1 [II-21] |
| < 500 nM | CCN1CCN(Cc2ccc(NC(=O)N3CCc4cc(F)c(Oc5ncnn6cccc56)cc4C3C)cc2C(F)(F)F)CC1 (stereo not drawn) [IV-33] |
| < 500 nM | CCN1CCN(Cc2ccc(NC(=O)N3CCc4ccc(Oc5ccnc6[nH]c(C7CC7)cc56)cc4[C@@H]3C)cc2C(F)(F)F)CC1 [V-26] |
| < 500 nM | CCN1CCN(Cc2ccc(NC(=O)N3CCc4ccc(Oc5ccnn6cc(F)cc56)cc4C3)cc2C(F)(F)F)CC1 [II-22] |
| 500 to 5000 nM | CCN1CCN(Cc2ccc(NC(=O)N3Cc4cc(Nc5ccnc(NC)c5)cnc4C(C)C3)cc2C(F)(F)F)CC1 (single isomer, unassigned) [IX-2] |
| 500 to 5000 nM | CCN1CCN(Cc2ccc(NC(=O)N3CCc4ccc(Oc5ccnc6[nH]ccc56)cc4[C@@H]3C)cc2C(F)(F)F)C(=O)C1 [V-20] |
| 500 to 5000 nM | C[C@H]1c2cc(Oc3ccnc4[nH]ccc34)ccc2CCN1C(=O)Nc1ccc(OC2CCNCC2)c(C(F)F)c1 [V-14] |
| < 500 nM | CN1CCC(Oc2ccc(NC(=O)N3CCc4ccc(Oc5ccnc6[nH]ccc56)cc4C3)cc2C(F)(F)F)CC1 [III-11] |
| < 500 nM | C[C@H]1c2cc(Oc3ccnc4[nH]ccc34)ccc2CCN1C(=O)Nc1ccc(OC2CCN(CCO)CC2)c(C(F)(F)F)c1 [V-17] |
| < 500 nM | CCN1CCN(Cc2ccc(NC(=O)N3CCc4ccc(Oc5ccnc6[nH]ccc56)cc4[C@@H]3C)cc2C(F)F)CC1 [V-4] |
| < 500 nM | CCCC1CN(C(=O)Nc2ccc(CN3CCN(CC)CC3)c(C(F)(F)F)c2)Cc2cc(Oc3ccnc4[nH]c(C)cc34)ccc21 (stereo not drawn) [IV-37] |
| 500 to 5000 nM | Cc1cc2c(Oc3ccc4c(c3)[C@H](C)N(C(=O)Nc3cnc(OC5CCN(C)CC5F)c(C(F)(F)F)c3)CC4)ccnc2[nH]1 (stereo in doubt) [VI-11] |

Same assay, conditions: 1 mM ATP, Table 20

| IC50 | Compound |
| --- | --- |
| < 500 nM | CCN1CCN(Cc2ccc(NC(=O)N3Cc4cc(Oc5ccnc6[nH]c(=O)ccc56)cnc4C(C)C3)cc2C(F)(F)F)CC1 (single isomer, unassigned) [XIV-2] |
| < 500 nM | CCN1CCN(Cc2ccc(NC(=O)N3CCc4ccc(Oc5c(F)cnc6[nH]c(C7(O)COC7)cc56)cc4[C@@H]3C)cc2C(F)(F)F)CC1 [XIII-16] |
| 5000 to 10000 nM | CCN1CCN(Cc2ccc(NC(=O)N3Cc4cc(Oc5ccnc6[nH]c(C)nc56)cnc4C(C)C3)cc2C(F)(F)F)CC1 (single isomer, unassigned) [XIV-27] |
| < 500 nM | C[C@@H]1Cc2ccc(Oc3ccnc4[nH]c(C5(O)CC5)cc34)cc2CN1C(=O)Nc1cnc(CN2CCN(C)CC2)c(C(F)(F)F)c1 [XVI-3] |
| < 500 nM | C[C@H]1CN(C(=O)Nc2ccc(CN3CCN(C)CC3)c(C(F)(F)F)c2)Cc2cc(Oc3ccnc4[nH]c(C(N)=O)cc34)ccc21 [XV-31] |
| 500 to 5000 nM | Cc1cc2c(Oc3cnc4c(c3)CN(C(=O)Nc3ccc(CN5C[C@H]6C[C@@H]5CN6C)c(C(F)(F)F)c3)C[C@H]4C)ccnc2[nH]1 [XIV-99] |
| 500 to 5000 nM | CC[C@H]1CN(C(=O)Nc2ccc(CN3CCNCC3)c(C(F)(F)F)c2)Cc2cc(Oc3ccnn4cc(C(=O)NC)nc34)cnc21 [XIV-129] |
| < 500 nM | Cc1cc2c(Oc3cnc4c(c3)CN(C(=O)Nc3ccc(CN5CCN(C)CC5)c(C(F)(F)F)c3)C[C@@H]4C)ccnc2[nH]1 [XIV-90] |
| < 500 nM | CCC1CN(C(=O)Nc2ccc(CN3CCN(CC)CC3)c(C(F)(F)F)c2)Cc2cc(Oc3ccnc4[nH]c(C5CCOC5)cc34)cnc21 (stereo not drawn) [XIV-63] |
| < 500 nM | CC[C@H]1CN(C(=O)Nc2ccc(CN3CCNCC3)c(C(F)(F)F)c2)Cc2cc(Oc3c(F)cnc4[nH]c(C(=O)N(C)C)cc34)cnc21 [XIV-145] |
| < 500 nM | C[C@H]1CN(C(=O)Nc2ccc(CN3CCN(C)CC3)c(C(F)F)c2)Cc2cc(Oc3ccnc4[nH]c(C5(O)COC5)cc34)ccc21 [XV-33] |
| < 500 nM | CC[C@H]1CN(C(=O)Nc2ccc(CN3CCN(C)CC3)c(C(F)(F)F)c2)Cc2cc(Oc3ccnc4[nH]c(-c5cn[nH]c5)cc34)cnc21 [XIV-149] |
| < 500 nM | C[C@H]1c2cc(Oc3ccnc4[nH]c(CO)cc34)ccc2CCN1C(=O)Nc1ccc(CN2CCN(CCO)CC2)c(C(F)(F)F)c1 [XIII-5] |
| < 500 nM | CC[C@H]1CN(C(=O)Nc2ccc(CN3CCNCC3)c(C(F)(F)F)c2)Cc2cc(Oc3ccnn4cc(C(=O)N(C)C)cc34)cnc21 [XIV-124] |
| < 500 nM | CC[C@@H]1CN(C(=O)Nc2ccc(CN3CCNCC3)c(C(F)(F)F)c2)Cc2cc(Oc3ccnc4[nH]c(CO)cc34)cnc21 [XIV-45] |
| < 500 nM | CC[C@@H]1CN(C(=O)Nc2ccc(CN3CCNCC3)c(C(F)(F)F)c2)Cc2cc(Oc3ccnc4[nH]c(CO)cc34)ccc21 [XV-4] |
| < 500 nM | CC[C@@H]1CN(C(=O)Nc2ccc(CN3CCN(CCO)CC3)c(C(F)F)c2)Cc2cc(Oc3ncnc4[nH]c(C5CC5)cc34)ccc21 [XV-42] |
| < 500 nM | CCC1CN(C(=O)Nc2ccc(CN3CCN(CC)CC3)c(C(F)(F)F)c2)Cc2cc(Oc3cc(NC(=O)OC)ncc3F)cnc21 (stereo not drawn) [XIV-87] |
| 500 to 5000 nM | CC[C@@H]1CN(C(=O)Nc2cnc(O[C@H]3CCN[C@@H](C)C3)c(C(F)(F)F)c2)Cc2cc(Oc3ccnc4[nH]c(C)cc34)cnc21 [XIV-71] |
| < 500 nM | CC[C@@H]1CN(C(=O)Nc2cnc(O[C@@H]3CCN[C@H](C)C3)c(C(F)(F)F)c2)Cc2cc(Oc3ccnc4[nH]c(C)cc34)cnc21 [XIV-69] |
| < 500 nM | CC[C@@H]1CN(C(=O)Nc2ccc(CN3CCN(C)CC3)c(C(F)(F)F)c2)Cc2cc(Oc3ccnc4[nH]c(C5CC5)cc34)cnc21 [XIV-73] |
| < 500 nM | CCN1CCN(Cc2ccc(NC(=O)N3CCc4ccc(Oc5cc(NC(=O)OC)ncc5F)cc4[C@@H]3C)cc2C(F)(F)F)CC1 [XIII-13] |
| < 500 nM | CC[C@@H]1CN(C(=O)Nc2cnc(CN3CCN(CC)CC3)c(C(F)(F)F)c2)Cc2cc(Oc3ccnc4[nH]c(CCOC)cc34)cnc21 [XIV-26] |
| < 500 nM | C[C@H]1c2cc(Oc3ccnc4[nH]c(CO)cc34)ccc2CCN1C(=O)Nc1cnc(OC2CCN(C)CC2)c(C(F)(F)F)c1 [XIII-3] |
| < 500 nM | CC[C@@H]1CN(C(=O)Nc2ccc(CN3CCN(CCO)CC3)c(C(F)(F)F)c2)Cc2cc(Oc3ccnc4[nH]c(CO)cc34)ccc21 [XV-6] |
| < 500 nM | CC[C@H]1CN(C(=O)Nc2ccc(CN3CCN(CC)CC3)c(C(F)(F)F)c2)Cc2cc(Oc3ccnc4[nH]c(C(=O)N(C)C)cc34)cnc21 [XIV-131] |
| < 500 nM | CCC1CN(C(=O)Nc2ccc(CN3CCN(CC)CC3)c(C(F)(F)F)c2)Cc2cc(Oc3ccnc4[nH]c(C5CCOCC5)cc34)cnc21 (stereo not drawn) [XIV-70] |
| < 500 nM | CC[C@H]1CN(C(=O)Nc2ccc(CN3CCNCC3)c(C(F)(F)F)c2)Cc2cc(Oc3ncnn4cc(C(=O)N(C)C)cc34)cnc21 [XIV-146] |
| < 500 nM | Cc1cc2c(Oc3cnc4c(c3)CN(C(=O)Nc3ccc(CN5CCN(C)CC5)c(OC(F)(F)F)c3)C[C@H]4C)ccnc2[nH]1 [XIV-89] |

Further lines, the molecule ahead of its results:

| Compound | IC50 |
| --- | --- |
| CCN1CCN(Cc2ccc(NC(=O)N3CCc4ncc(Oc5ccnc6[nH]ccc56)cc4[C@H]3C)cc2C(F)(F)F)CC1 [XI-4] | 500 to 5000 nM |
| CCN1CCN(Cc2ccc(NC(=O)N3CCc4ncc(Oc5ncnc6[nH]c(C)cc56)cc4[C@H]3C)cc2C(F)(F)F)CC1 [XI-8] | 5000 to 10000 nM |
| CN(C)C(=O)c1cc2c(Oc3ccc4c(c3)CN(C(=O)Nc3ccc(CN5CCNCC5)c(C(F)(F)F)c3)CC4)c(F)cnc2[nH]1 [XVIII-3] | < 500 nM |
| CN1CCN(Cc2ccc(NC(=O)N3Cc4cc(Oc5ccnc6[nH]ccc56)ccc4C(C(F)(F)F)C3)cc2C(F)(F)F)CC1 (stereo not drawn) [XVIII-14] | < 500 nM |
